Assay results taken from US11753376B2, “Benzyloxy pyridine derivatives and uses thereof” (AUTOTAC INC., priority 2021, dated 2023).

Tested on: intracellular autophagy flux (LC3-II) in HEK293T cell line
Experiment: Evaluation of intracellular autophagy activity (autophagy flux) by immunoblotting
Format: cell-based, human
Settings: HCQ 5 μM, 24 hours
Procedure: In order to evaluate the autophagy flux activity efficacy by the compounds, the HEK293T cell line, which is a cell line derived from a human embryonic kidney-derived cell, was cultured using a DMEM medium containing 10% FBS and 1% streptomycin/penicillin in an incubator with 5% carbon dioxide. In order to measure the autophagy flux activity according to the treatment of the compounds synthesized in the above examples, each cell was dispensed in a 6-well plate. Additional incubation was carried out for 24 hours so that the cells were completely attached to the surface of the plate. Cells were collected after treatment with the compound (5 μM) alone or with the lysosomal inhibitor, hydroxychloroquine (HCQ) (5 μM) for 24 hours to determine whether the compound increases autophagy flux. […] Based on the measured total protein concentration, a sample buffer was added to each sample and reacted at 100° C. for 5 minutes. […]
FIG. 2 is a result of immunoblotting showing the efficacy of the compound (ATB1110) to activate intracellular autophagy flux. […] As HCQ was treated, the level of LC3-II, a marker of autophagy activity, was increased, and the difference between LC3-II in the untreated state and the treated state was measured. […]

**Q.** `CCN(CCO)CCCC(C)Nc1ccnc2cc(Cl)ccc12` (stereo not shown) [HCQ, hydroxychloroquine] was tested. Which “level of LC3-II, a marker of autophagy activity” value did it give?
**A.** Its value is “increased”.
